Test results published in the NIST ThermoML archive (doi:10.1021/je1003065).
Numbers after ± are expanded uncertainties.

Experiment: mn = molality of the nth substance listed, in mol/kg
Conditions: Liquid, Vibrating tube method

[Br-].[Li+] [lithium bromide] + CCO
Conditions | mass density [kg/m3]
273.09 K, 4590 kPa, m1 = 2.272 | 943.92 ± 1.9
273.13 K, 30024 kPa, m1 = 0.2335 | 841.53 ± 1.7
273.14 K, 5012 kPa, m1 = 0.2335 | 824.8 ± 1.7
273.14 K, 29954 kPa, m1 = 2.833 | 990.17 ± 2
273.14 K, 49926 kPa, m1 = 2.833 | 1001.06 ± 2
273.14 K, 80014 kPa, m1 = 0.2335 | 868.58 ± 1.8
273.15 K, 1023 kPa, m1 = 0.2335 | 821.76 ± 1.6
273.15 K, 1024 kPa, m1 = 0.9499 | 866.06 ± 1.7
273.15 K, 1024 kPa, m1 = 2.833 | 971.83 ± 1.9
273.15 K, 1537 kPa, m1 = 3.368 | 1000.06 ± 2
273.15 K, 2048 kPa, m1 = 1.462 | 896.66 ± 1.8
273.15 K, 5002 kPa, m1 = 2.833 | 974.56 ± 1.9
273.15 K, 5021 kPa, m1 = 0.9499 | 868.77 ± 1.7
273.15 K, 10002 kPa, m1 = 0.2335 | 828.53 ± 1.7
273.15 K, 10002 kPa, m1 = 0.9499 | 872.07 ± 1.8
273.15 K, 10177 kPa, m1 = 2.272 | 947.5 ± 1.9
273.15 K, 19956 kPa, m1 = 2.833 | 984.22 ± 2
273.15 K, 20031 kPa, m1 = 0.2335 | 835.19 ± 1.7
273.15 K, 20031 kPa, m1 = 0.9499 | 878.51 ± 1.8
273.15 K, 30045 kPa, m1 = 0.9499 | 884.65 ± 1.8
273.15 K, 39945 kPa, m1 = 0.2335 | 847.51 ± 1.7
273.15 K, 39974 kPa, m1 = 2.833 | 995.79 ± 2
273.15 K, 40015 kPa, m1 = 0.9499 | 890.49 ± 1.8
273.15 K, 49923 kPa, m1 = 0.2335 | 853.22 ± 1.7
273.15 K, 50027 kPa, m1 = 0.9499 | 896.06 ± 1.8
273.15 K, 59570 kPa, m1 = 2.272 | 975.51 ± 2
273.15 K, 60021 kPa, m1 = 2.833 | 1006.15 ± 2
273.15 K, 60029 kPa, m1 = 0.9499 | 901.35 ± 1.8
273.15 K, 69980 kPa, m1 = 2.272 | 980.49 ± 2
273.15 K, 70002 kPa, m1 = 0.9499 | 906.34 ± 1.8
273.15 K, 70003 kPa, m1 = 0.2335 | 863.78 ± 1.8
273.15 K, 70035 kPa, m1 = 2.833 | 1010.98 ± 2
273.15 K, 79857 kPa, m1 = 2.272 | 985.04 ± 2
273.15 K, 79954 kPa, m1 = 0.9499 | 911.03 ± 1.9
273.15 K, 89925 kPa, m1 = 2.272 | 989.55 ± 2
273.15 K, 89935 kPa, m1 = 0.9499 | 915.46 ± 1.9
273.15 K, 89956 kPa, m1 = 2.833 | 1020.12 ± 2.1
273.15 K, 90023 kPa, m1 = 0.2335 | 873.07 ± 1.8
273.15 K, 99945 kPa, m1 = 0.2335 | 877.21 ± 1.9
273.15 K, 99986 kPa, m1 = 0.9499 | 919.63 ± 1.9
273.15 K, 99986 kPa, m1 = 2.833 | 1024.57 ± 2.1
273.16 K, 5195 kPa, m1 = 1.462 | 898.75 ± 1.8
273.16 K, 10032 kPa, m1 = 2.833 | 977.92 ± 2
273.16 K, 20027 kPa, m1 = 3.368 | 1011.76 ± 2
273.16 K, 29980 kPa, m1 = 3.368 | 1017.69 ± 2
273.16 K, 39977 kPa, m1 = 3.368 | 1023.39 ± 2
273.16 K, 49994 kPa, m1 = 0.5972 | 875.26 ± 1.8
273.16 K, 59884 kPa, m1 = 0.5972 | 880.54 ± 1.8
273.16 K, 59985 kPa, m1 = 0.2335 | 858.67 ± 1.8
273.16 K, 69990 kPa, m1 = 0.5972 | 885.63 ± 1.8
273.16 K, 80061 kPa, m1 = 2.833 | 1015.64 ± 2
273.16 K, 100090 kPa, m1 = 2.272 | 994.02 ± 2
273.17 K, 1948 kPa, m1 = 2.272 | 941.72 ± 1.9
273.17 K, 9742 kPa, m1 = 1.462 | 901.73 ± 1.8
273.17 K, 10114 kPa, m1 = 3.368 | 1005.6 ± 2
273.17 K, 19964 kPa, m1 = 0.5972 | 857.46 ± 1.7
273.17 K, 20349 kPa, m1 = 2.272 | 953.97 ± 1.9
273.17 K, 29947 kPa, m1 = 2.272 | 959.72 ± 1.9
273.17 K, 29993 kPa, m1 = 0.5972 | 863.7 ± 1.7
273.17 K, 39918 kPa, m1 = 0.5972 | 869.58 ± 1.8
273.17 K, 49964 kPa, m1 = 2.272 | 970.63 ± 1.9
273.17 K, 49974 kPa, m1 = 3.368 | 1028.82 ± 2.1
273.17 K, 80091 kPa, m1 = 0.5972 | 890.43 ± 1.8
273.17 K, 89924 kPa, m1 = 3.368 | 1047.9 ± 2.1
273.17 K, 89993 kPa, m1 = 0.5972 | 894.84 ± 1.9
273.17 K, 99951 kPa, m1 = 3.368 | 1052.03 ± 2.1
273.18 K, 1306 kPa, m1 = 0.5972 | 845.06 ± 1.7
273.18 K, 4686 kPa, m1 = 0.5972 | 847.38 ± 1.7
273.18 K, 4965 kPa, m1 = 3.368 | 1002.3 ± 2
273.18 K, 9917 kPa, m1 = 0.5972 | 850.91 ± 1.7
273.18 K, 20115 kPa, m1 = 1.462 | 908.3 ± 1.8
273.18 K, 29966 kPa, m1 = 1.462 | 914.27 ± 1.8
273.18 K, 49922 kPa, m1 = 1.462 | 925.55 ± 1.9
273.18 K, 60091 kPa, m1 = 1.462 | 930.87 ± 1.9
273.18 K, 60277 kPa, m1 = 3.368 | 1034.14 ± 2.1
273.18 K, 69993 kPa, m1 = 1.462 | 935.78 ± 1.9
273.18 K, 69994 kPa, m1 = 3.368 | 1038.9 ± 2.1
273.18 K, 79725 kPa, m1 = 3.368 | 1043.43 ± 2.1
273.18 K, 80129 kPa, m1 = 1.462 | 940.52 ± 1.9
273.18 K, 89963 kPa, m1 = 1.462 | 944.86 ± 1.9
273.18 K, 100098 kPa, m1 = 0.5972 | 899.04 ± 1.9
273.19 K, 39973 kPa, m1 = 1.462 | 920.07 ± 1.9
273.19 K, 40359 kPa, m1 = 2.272 | 965.49 ± 1.9
273.2 K, 99708 kPa, m1 = 1.462 | 948.89 ± 1.9
293.12 K, 9790 kPa, m1 = 1.462 | 886.75 ± 1.8
293.13 K, 1999 kPa, m1 = 1.462 | 881.23 ± 1.8
293.13 K, 5005 kPa, m1 = 1.462 | 883.38 ± 1.8
293.13 K, 19962 kPa, m1 = 1.462 | 893.68 ± 1.8
293.13 K, 29997 kPa, m1 = 1.462 | 900.21 ± 1.8
293.13 K, 30014 kPa, m1 = 0.2335 | 827.08 ± 1.7
293.13 K, 40468 kPa, m1 = 1.462 | 906.69 ± 1.8
293.13 K, 49901 kPa, m1 = 1.462 | 912.25 ± 1.8
293.13 K, 59950 kPa, m1 = 3.368 | 1019.25 ± 2
293.14 K, 5014 kPa, m1 = 0.2335 | 809.13 ± 1.6
293.14 K, 10097 kPa, m1 = 3.368 | 989.9 ± 2
293.14 K, 19953 kPa, m1 = 2.833 | 969.14 ± 1.9
293.14 K, 49968 kPa, m1 = 2.833 | 986.92 ± 2
293.14 K, 49985 kPa, m1 = 0.2335 | 839.79 ± 1.7
293.14 K, 59817 kPa, m1 = 0.5972 | 867.48 ± 1.8
293.14 K, 60137 kPa, m1 = 1.462 | 917.97 ± 1.9
293.14 K, 69946 kPa, m1 = 3.368 | 1024.25 ± 2.1
293.14 K, 69979 kPa, m1 = 0.5972 | 872.97 ± 1.8
293.14 K, 69979 kPa, m1 = 1.462 | 923.18 ± 1.9
293.14 K, 79675 kPa, m1 = 0.5972 | 877.88 ± 1.8
293.15 K, 1003 kPa, m1 = 0.2335 | 805.64 ± 1.6
